Laboratory results taken from patent publication US11434479B2, “Sialic acid binding polypeptide” (priority 2017, dated 2022).
Changes are numbered by the printed parent chain.

Columns and labels:
[1] = molecular target: T1, Streptococcus pneumoniae NanB fragment (residues 30-697, SEQ ID NO:4) variant Sia-PS2, D270A (Streptococcus pneumoniae serotype 4, UniProt Q54727, D270A); test: Bio-layer Interferometry (BLI) steady-state binding to immobilized oligosaccharides; settings: in words
T1 construct: exemplified by a NanB fragment (residues 30-697); made in house; host or cells: pET28a+ based plasmid
T1 sequence (Q54727 30-692 D270A): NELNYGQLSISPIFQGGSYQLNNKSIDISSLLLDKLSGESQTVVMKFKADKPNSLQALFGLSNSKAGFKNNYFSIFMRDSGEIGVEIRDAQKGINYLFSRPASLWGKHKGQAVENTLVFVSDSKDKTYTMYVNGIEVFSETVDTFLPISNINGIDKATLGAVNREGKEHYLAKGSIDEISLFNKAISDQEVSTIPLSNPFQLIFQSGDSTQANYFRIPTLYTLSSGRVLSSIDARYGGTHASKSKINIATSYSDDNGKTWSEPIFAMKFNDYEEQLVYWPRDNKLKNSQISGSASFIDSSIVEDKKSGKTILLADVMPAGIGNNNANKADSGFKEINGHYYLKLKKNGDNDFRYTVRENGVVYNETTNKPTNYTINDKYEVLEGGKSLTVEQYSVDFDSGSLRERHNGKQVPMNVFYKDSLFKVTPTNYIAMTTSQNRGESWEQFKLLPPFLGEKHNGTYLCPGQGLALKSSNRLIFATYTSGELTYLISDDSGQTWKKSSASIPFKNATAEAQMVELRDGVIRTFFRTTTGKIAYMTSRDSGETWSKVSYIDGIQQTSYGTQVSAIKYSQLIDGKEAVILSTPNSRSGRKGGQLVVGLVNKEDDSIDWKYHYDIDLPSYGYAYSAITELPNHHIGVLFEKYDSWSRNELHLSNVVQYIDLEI
Excerpt: (§1) Lsp=lactose (no sialic acid), 3′SL=α2,3-sialyllactose, 6′SL=α2,6-sialyllactose, GD3=GD3 oligosaccharide that contains a terminal α2,8-linked Neu5Ac residue and an internal α2,3-linked Neu5Ac residue.
(§2) The pan-specific sialic acid-recognizing affinity reagent of the invention is exemplified by a NanB fragment (residues 30-697; SEQ ID NO:4) with a single mutation. Exemplary mutation sites include Y653, D270, and E541. Exemplary pan-specific affinity reagents, each having a single mutation in the NanB GH domain as noted, are shown in Table 2 and include Sia-PS1 (Y653F), Sia-PS2 (D270A), Sia-PS3 (D270N), Sia-PS4 (E541A), and Sia-PS5 (E541Q). […] They reduce (Sia-PS2 and Sia-PS3) or effectively eliminate (Sia-PS1, Sia-PS4, and Sia-PS5) catalytic activity, and they broaden specificity for sialic acid ligand binding. The pan-specific sialic acid-recognizing affinity reagent we chose for further validation study was Sia-PS1 that contains the Y653F at active site residue Tyr653. This one mutation, which involves removal of a single hydroxyl group, not only eliminates enzyme activity, but astonishingly introduces pan-specific binding into the mutated, inactivated enzyme, despite its distance from the carbohydrate binding module (CBM) domain of the NanB.
(§3) The flowchart presented in FIG. 2 outlines schematically the methods employed in Example I and II to screen, optimize and select the Lectenz® candidates. The specificity and affinity of potential Lectenz® candidates is evaluated through structurally-guided site-specific and/or site-saturation mutagenesis assays designed to enable the selection of optimal clones. Bio-layer Interferometry (BLI) is used to determine the binding kinetics and affinities for binding to glycans and glycoproteins. Affinity chromatography is performed by immobilizing the Lectenz® candidates in a column format to evaluate their ability to fractionate sialylated- and asialo-glycans and glycoconjugates. All promising Lectenz® candidates are screened against the glycan array at the CFG, which currently contains over 600 O- and N-linked glycans.
(§4) Steady-state binding constants between Lectenz® candidates and sialic acid ligands were measured by BLI.

[2] = molecular target: T2, Streptococcus pneumoniae NanB fragment (residues 30-697, SEQ ID NO:4) variant Sia-PS4, E541A (Streptococcus pneumoniae serotype 4, UniProt Q54727, E541A); test: as above; settings: in words
T2 construct: exemplified by a NanB fragment (residues 30-697); poly-histidine; made in house; host or cells: pET28a+ based plasmid
T2 sequence (Q54727 30-692 E541A): T1 sequence (Q54727 30-692 D270A) with A241D, E512A
Excerpt: as §1, §2, §3, §4

For `CC(=O)N[C@H]1[C@H]([C@H](O)[C@H](O)CO)O[C@@](O[C@H](CO)[C@@H](O)[C@@H]2O[C@@](O[C@H]3[C@@H](O)[C@@H](CO)O[C@@H](O[C@H]4[C@H](O)[C@@H](O)C(O)O[C@@H]4CO)[C@@H]3O)(C(=O)O)C[C@H](O)[C@H]2NC(C)=O)(C(=O)O)C[C@@H]1O` (some centres unmarked) [GD3, Neu5Acα2,8Neu5Acα2,3Galβ1, 4Glcβ], the binding affinity [1] was “micromolar or sub-micromolar” and the binding affinity [2] was “micromolar or sub-micromolar”.

In the case of `CC(=O)N[C@H]1[C@H]([C@H](O)[C@H](O)CO)O[C@@](O[C@H]2[C@@H](O)[C@@H](CO)O[C@@H](O[C@H]3[C@H](O)[C@@H](O)C(O)O[C@@H]3CO)[C@@H]2O)(C(=O)O)C[C@@H]1O` (stereo partly drawn) [3′SL, α2,3-sialyllactose], the KD value [1] was “higher KD value”, the binding affinity [1] was “micromolar or sub-micromolar” and the KD value [2] was “sub-micromolar”. The binding affinity [2] was “micromolar or sub-micromolar”.

In the case of `CC(=O)N[C@H]1[C@H]([C@H](O)[C@H](O)CO)O[C@@](OC[C@H]2O[C@@H](O[C@H]3[C@H](O)[C@@H](O)C(O)O[C@@H]3CO)[C@H](O)[C@@H](O)[C@H]2O)(C(=O)O)C[C@@H]1O` (some centres unmarked) [6′SL, 6′-sialyllactose (Neu5Acα2,6Galβ1, 4Glcβ, or 6′SL)], the binding affinity [1] was “micromolar or sub-micromolar” and the binding affinity [2] was “micromolar or sub-micromolar”.
